Source: publication PMC4048319, “Design and Synthesis of High Affinity Inhibitors of Plasmodium falciparum and Plasmodium vivax N-Myristoyltransferases Directed by Ligand Efficiency Dependent Lipophilicity (LELP)” (Journal of Medicinal Chemistry, 2014)

Tests used:
PfNMT [1] = target: T1, PfNMT (Plasmodium falciparum, UniProt Q9U419); assay: LELP (cLogP/LE, PfNMT LE)
T1 sequence (Q9U419 1-410): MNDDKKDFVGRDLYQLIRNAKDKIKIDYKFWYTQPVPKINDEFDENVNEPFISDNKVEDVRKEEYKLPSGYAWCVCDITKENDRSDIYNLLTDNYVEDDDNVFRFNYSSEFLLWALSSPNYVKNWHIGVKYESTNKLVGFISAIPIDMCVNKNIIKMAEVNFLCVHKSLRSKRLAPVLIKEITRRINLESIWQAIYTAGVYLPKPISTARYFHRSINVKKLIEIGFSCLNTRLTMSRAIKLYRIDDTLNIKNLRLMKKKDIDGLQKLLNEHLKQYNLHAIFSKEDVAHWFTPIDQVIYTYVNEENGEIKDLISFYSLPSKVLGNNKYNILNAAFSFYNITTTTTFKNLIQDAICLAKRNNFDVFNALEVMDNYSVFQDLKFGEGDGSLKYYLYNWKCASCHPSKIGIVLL

PfNMT [2] = target: T1, PfNMT; assay: NMT enzyme inhibition, CPM fluorescence assay (PfNMT); type: biochemical
Method: (§1) All IC50 determinations were carried out using a 7-diethylamino-3-(4′-maleimidylphenyl)-4-methylcoumarin (CPM) fluorescence assay, as described previously for HsNMT1,[45] PvNMT,[46] and PfNMT.[21]
(§2) IC50 values are the mean value of two or more determinations, and standard deviation is within 20% of the IC50 unless otherwise specified. Data were elaborated using Microsoft Office Excel 2010, and IC50 values were determined using GraFit 7.0 (Erithacus Software Ltd., U.K.) by nonlinear regression fitting, which were then quoted as Ki as defined below.
(§3) The Michaelis constant (Km) was 3.64 μM and the substrate concentration was 4.00 μM, resulting in a Ki of 0.008 μM. Km values were calculated as described previously.[45]

[3] = test system: Plasmodium falciparum 3D7; assay: Plasmodium falciparum Sybr Green viability assay (3D7); type: cell-based; conditions: blood stage, Sybr Green fluorometric assay, 96 h, read-out: Pf 3D7 EC50
Method: Synchronous Plasmodium falciparum 3D7 late stage trophozoites at 33–36 h were used. […] Red blood cells used for the assay were centrifuged to remove the buffy coat and washed twice in Roswell Park Memorial Institute (RPMI) medium 1640 so that no white blood cells were present. The culture medium contained RPMI 1640 with 5 g/L Albumax, 0.025 g/L gentamycin, and 0.292 g/L L-glutamine. Sterile 96-well black tissue culture plates (Costar) were used routinely for every assay. […] Two sets of control were used in duplicate wells, one set with no added drugs (positive control) and one with uninfected red blood cells (negative control). […] After 48 h supernatants were taken from each well and replaced with fresh drug and incubated for a further 48 h in the same manner. At the end of the 96 h incubation, 25 μL of SYBR Green I dye (SYBR Green I nucleic acid gel stain 10000×, in DMSO from Invitrogen) in lysis buffer (1 μL dye to 1 mL of lysis buffer) was added to each well and stored overnight at −20 °C. […] Plates were warmed to room temperature, and fluorescence intensity was measured with a FLUOstar Omega microplate fluorescence reader (BMG Labtech). Values were expressed in relative fluorescence units. […] Fluorescence intensity unit was converted to percentage (%) of growth as follows: [drawing 2]

PvNMT = target: T2, PvNMT (Plasmodium vivax, UniProt A5K1A2); assay: NMT enzyme inhibition, CPM fluorescence assay (PvNMT); type: biochemical
T2 sequence (A5K1A2 1-410): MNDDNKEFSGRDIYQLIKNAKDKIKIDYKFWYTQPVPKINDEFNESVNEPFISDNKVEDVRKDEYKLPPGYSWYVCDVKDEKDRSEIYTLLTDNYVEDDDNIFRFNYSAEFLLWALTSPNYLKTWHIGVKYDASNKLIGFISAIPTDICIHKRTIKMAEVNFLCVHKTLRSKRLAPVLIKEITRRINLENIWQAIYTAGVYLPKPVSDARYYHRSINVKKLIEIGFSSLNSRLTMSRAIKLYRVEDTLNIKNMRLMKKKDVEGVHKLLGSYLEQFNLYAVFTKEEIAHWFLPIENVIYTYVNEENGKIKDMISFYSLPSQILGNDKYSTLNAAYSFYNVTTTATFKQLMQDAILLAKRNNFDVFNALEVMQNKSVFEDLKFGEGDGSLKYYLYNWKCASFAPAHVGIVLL
Method: as §1, §2, §3

Compound COc1cccc(COC(=O)c2sc3ccccc3c2OC2CCNCC2)c1 [compound 1] has an LELP (PfNMT [1]) of 13.5, a Ki (PfNMT [2]) of 832 nM and an EC50 [3] of 2000 nM. It also gave a Ki (PvNMT) of 84 nM.
